62 molecules from a melting point compilation (Tetko et al.; mined from patent text by program, amines drawn as free bases though some values may be those of a salt) can be followed below.

The structures appear in SMILES notation.

`CCOC(=O)c1sc(N2CCN(CC3CC3(F)F)C2=O)nc1C` (configuration not stated) showed a melting point of 146 to 148 °C.

Take `CCCCCCc1ccc(S(=O)(=O)Nc2nncs2)cc1`: the melting point was in the range of 125 to 126 °C.

Consider `Cn1nc2c(-c3ccc(Cl)cc3Cl)cccc2c1CCC#N`, for which the melting point is 192 to 193 °C.

As for `O=C1C(=Cn2ccnc2)c2ccccc2N1c1ccccc1`, the melting point lay within 158 to 161 °C.

In turn, `CC1(C)CC2(CC(C)(C)N1c1nc(N(CCO)CCO)nc(N3CCOCC3)n1)OCCO2` came in with a melting point of 135 to 140 °C.

In turn, `CCOC(=O)c1cc2n(C)c3ccccc3c(=O)n2n1` had a melting point of 239 to 241 °C.

For the molecule `Cc1oc(-c2ccccc2)nc1COc1ccc2oc(CCCc3nnn[nH]3)cc2c1`, the melting point is 136 to 137 °C.

The molecule `CCOC(=O)C=Cc1ccc(OC)c(-c2cc3c(cc2OCCCCCC(=O)OC(C)(C)C)C(C)(C)CCC3(C)C)c1` gave a melting point of 130 to 132 °C.

`CC(=O)c1cn(S(=O)(=O)c2ccccc2)c2nccc(-c3ccccc3)c12` came in with a melting point of 138 to 140 °C.

`CC(=O)NCC1CC1c1c(-c2cccnc2)ccc2nn(C)cc12` (configuration not stated) came in with a melting point of 136 to 138 °C.

`CCOc1ccc(C(=NO)c2ccc(OC)c(Cl)c2Cl)c(F)c1`: the melting point lay in the range of 188 to 189 °C.

Turning to `COc1ccc(-n2c3ccccc3c3cc(C=C(C#N)c4cc(C(F)(F)F)cc(C(F)(F)F)c4)ccc32)cc1`, the melting point is 198 to 200 °C.

For the molecule `O=C(NCC1CCN(CC2(C(=O)O)CC2)CC1)N1C(=O)C2(CCCC2)c2ccccc21`, the melting point came to 186 °C.

In turn, `COC(=O)/C=C/c1ccc(/C=C/c2csc(NC(C)=O)n2)s1` had a melting point of 200 to 202 °C.

`C[C@H](C(=O)N[C@H](CO)Cc1ccccc1)c1ccc(NS(C)(=O)=O)c(F)c1` displayed a melting point of 150 to 153 °C.

Take `CN1C(=O)N(CCN=C=O)C(C)(C)C1=O`: the melting point was 62 °C.

With `CC(C)(CO)Nc1nc(-c2ccc(C#N)c(F)c2)cs1`, the melting point was 128 to 130 °C.

For `CCOC(=O)C1=C(C)NC(C)=C(C(=O)OCC)C1c1ccccc1/C=C(\C)C(=O)O`, the melting point was 205 to 207 °C.

The molecule `CC(=O)O[C@H]1CC[C@H](CCCCCC(=O)O)CC1` registered a melting point of 82 to 86 °C.

`CSc1nc2c(n1-c1ccccc1)CCCC2` displayed a melting point of 112 °C.

`O=c1[nH]c2ccc(CCN3CCN(c4ccc5ncccc5c4)CC3)cc2o1` had a melting point of 200 °C.

`CNC(=O)OC(Cn1cncn1)c1ccc(Cl)cc1Cl` (configuration not stated) registered a melting point of 204 °C.

The molecule `CN1C(=O)CC(C)(C)c2cc(C3(C)OCCO3)ccc21` had a melting point of 81 to 83 °C.

Molecule `FC(F)(F)C(F)(F)C(F)(F)C(F)(F)C(F)(F)C(F)(F)C(F)(F)C(F)(F)C(F)(F)Br` displayed a melting point of 30 °C.

For `CCN(CC)C(=O)c1ccc(C(c2cccc(O)c2)N2CC(C)N(CC#N)CC2C)cc1` (configuration not stated), the melting point fell in the range of 190 to 192 °C.

For the molecule `CC(C)(C)C(=O)C(Br)C(Br)C(=O)C(C)(C)C` (configuration not stated), the melting point is 107 to 109 °C.

The molecule `O=C(F)N(SN1CCOCC1)c1ccccc1` showed a melting point of 71 to 72 °C.

`COc1ccccc1N1CCN(Cc2cnc(N)nc2N)CC1` yielded a melting point of 195 to 196 °C.

`COc1c(Nc2ncc(Cl)c(N[C@H]3[C@@H](C(N)=O)[C@@H]4C=C[C@H]3C4)n2)ccc2c1CC(N1CCOCC1)CCC2` (some centres not stated): the melting point was 139 to 148 °C.

In turn, `NC(=O)c1cc(-c2ccccc2)n[nH]c1=O` had a melting point greater than 300 °C.

`COC(=O)c1cn2c(C(F)(F)F)nnc2c2ccccc12` gave a melting point of 170 °C.

Take `COc1ccc(Cc2nc3c(O)cccc3o2)cc1OC1CCCC1`: the melting point fell in the range of 172 to 181 °C.

For the molecule `COc1ccc(-c2ccc3[nH]c4c(c3c2)CCN(C(=O)c2ccccc2)CC4)cc1`, the melting point is 140 to 145 °C.

In turn, `COC(=O)[C@H](Cc1ccccc1)NC(=O)[C@H](Cc1ccccc1)NC(=O)c1cnccn1` gave a melting point of 111 to 113 °C.

`COc1cc(CCc2ccc(Nc3ccccc3C(=O)O)cc2)cc(OC)c1OC` had a melting point of 146 to 147 °C.

The molecule `O=C(Oc1ccc(-c2cc3ccc(OC(=O)c4ccccc4)cc3s2)cc1)c1ccccc1` registered a melting point of 216 to 218 °C.

`O=C(Nc1ccc(-n2nc(C(F)(F)F)cc2C(F)(F)F)cc1)Nc1ccc(Cl)cc1[N+](=O)[O-]` returned a melting point of 225 to 227 °C.

`OC1(CN2CC2)COc2ccccc2OC1` yielded a melting point of 98 to 99.5 °C.

Regarding `CCCOC(=O)c1ccc(OC(=O)CCCC(=O)Oc2ccc(C(=O)OCCC)cc2)cc1`, the melting point is 74 to 75 °C.

Turning to `COc1cc(-c2nc3ccc(OCC(C)N(C)C)cc3n2Cc2ccccc2C(F)(F)F)cc(OC)c1OC` (configuration not stated), the melting point was determined as 163 °C.

In turn, `O=C(c1ccccc1)N1CC(=O)N(CCc2ccccc2)C(=O)C1` registered a melting point of 102 °C.

As to `COc1cc(Nc2c(C#N)cnc3cc(-c4ccsc4CN4CCOCC4)ccc23)c(Cl)cc1Cl`, the melting point is 98 to 100 °C.

As to `O=C(C1=C(c2ccccc2)c2ccc(O)cc2C1)c1ccc(O)cc1`, the melting point lay within 191 to 192 °C.

Molecule `CC(C)(CCC#N)c1ccc(C(=O)Nc2cn3cc(-n4ccnc4)ccc3n2)cc1` showed a melting point of 233 to 234 °C.

Consider `CCNCC1CCN(c2c(F)cc3c(=O)c(C(=O)O)cn(C4CCCCC4)c3c2F)C1` (configuration not stated), for which the melting point was 194 to 196 °C.

Molecule `S=c1n(CNc2ccc(Br)cc2)nc(-c2ccncc2)n1-c1ccccc1` came in with a melting point of 208 to 209 °C.

Take `COc1cc(C(C)=O)ccc1OCCN1CCN(c2nsc3ccccc23)CC1`: the melting point fell in the range of 98 to 100 °C.

`COc1c(NOCc2ccccc2)ccnc1C` had a melting point of 130 °C.

Consider `O=c1cc(CO)oc2ccccc12`, for which the melting point was in the range of 165 to 167 °C.

Turning to `COC(=O)C1CCCn2c(=O)n(CSC(C)=O)c(=O)n21` (configuration not stated), the melting point was in the range of 100 to 102 °C.

`CC(C)OC(=O)c1ncn2c3cccc(Cl)c3c(=O)n(C)c12`: the melting point lay in the range of 216 to 220 °C.

Molecule `O=[N+]([O-])c1ccccc1N1CCN(CC(O)COc2cccc3c2CCCC3)CC1` (configuration not stated) gave a melting point of 186 to 187 °C.

On to `O=C(O)CCCCCCCC(=O)Nc1cc(Cl)ccc1O`, for which the melting point lay within 117 to 118 °C.

On to `CCN(c1ccc(SC)cc1[N+](=O)[O-])S(=O)(=O)c1ccc(C)cc1`, for which the melting point is 135 to 136 °C.

On to `CN1CCN(C2=Nc3cc(Cl)ccc3Nc3nn(C)nc32)CC1`, for which the melting point lay within 200 to 203 °C.

In turn, `O=c1[nH]c2cc(Cl)c(Cl)cc2n1CCCN1CCN(C(c2ccccc2)c2ccccc2)CC1` registered a melting point of 214 °C.

In the case of `O=C(CCCN1C(=O)c2ccccc2C1=O)Nc1nnc(SCc2ccccc2)s1`, the melting point lay in the range of 128 to 131 °C.

For `Nc1c(-c2ccc(Cl)cc2)nc2ccc(Cl)cc2c1C(=O)O`, the melting point lay in the range of 240 to 241 °C.

Take `CN(C)CC1Cc2ccccc2N(S(C)(=O)=O)C1` (configuration not stated): the melting point lay in the range of 69 to 70 °C.

In the case of `CCOC(=O)Cn1c2c([nH]c(=O)c1=O)CCC1=C2C=C([N+](=O)[O-])CC1`, the melting point lay in the range of 217 to 219 °C.

The molecule `O=c1[nH]c2cc([N+](=O)[O-])ccc2c(=O)n1N1CC=C(c2ccc(Cl)cc2)CC1` registered a melting point of 210 to 212 °C.

With `COc1ccc(CSc2cnccc2C#N)cc1`, the melting point lay within 80 to 81 °C.
